Experimental data from US20240228499A1, “MASP-2 INHIBITORS AND METHODS OF USE” (Omeros Corporation, priority 2022, published 2024).
Structures can show the parent of a compound that is named as a salt.

How the values were obtained:
[1] = biological target: T1, MASP-2 (CCP1-CCP2-SP) (Homo sapiens, UniProt O00187); assay: Enzymatic assay for MASP-2 inhibitory activity (fluorogenic substrate); assay type: biochemical; settings: room temperature, 20 mM Hepes pH 7.4, 20 min
T1 construct: 15 μL of Enzyme MASP-2 (CCP1-CCP2-SP) in Assay Buffer
T1 sequence (O00187 287-686 limits assumed): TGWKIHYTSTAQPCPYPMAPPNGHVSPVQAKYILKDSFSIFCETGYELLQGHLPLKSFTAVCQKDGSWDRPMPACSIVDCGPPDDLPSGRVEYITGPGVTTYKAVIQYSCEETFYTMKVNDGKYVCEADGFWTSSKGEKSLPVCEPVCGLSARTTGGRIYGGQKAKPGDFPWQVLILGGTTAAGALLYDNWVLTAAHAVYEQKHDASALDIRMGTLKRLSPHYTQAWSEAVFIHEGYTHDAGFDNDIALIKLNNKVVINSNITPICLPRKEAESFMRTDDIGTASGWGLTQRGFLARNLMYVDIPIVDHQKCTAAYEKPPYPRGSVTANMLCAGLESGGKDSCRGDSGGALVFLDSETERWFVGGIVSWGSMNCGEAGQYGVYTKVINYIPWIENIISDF
Procedure, shortened: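 Human MASP-2 CCP1-CCP2-SP construct with a C2-cleavage-site fluorogenic substrate in 20 mM HEPES pH 7.4, 140 mM NaCl, 0.1% Tween 20, 20 min at room temperature before acetic acid stop. Activity normalised to DMSO and no-enzyme controls; IC50 taken as equivalent to Ki under linear conditions.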

[2] = biological target: T2, human a-thrombin (Homo sapiens, UniProt P00734); assay: Enzymatic assay for thrombin (fluorogenic peptide substrate Boc-VPR-AMC); assay type: biochemical; settings: room temperature, 20 mM Hepes pH 7.4, 20 min
T2 construct: enzyme (human a-thrombin (BioPharm® Lab.)); purchased BioPharm Lab
Procedure, shortened: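 Human α-thrombin was incubated with serially diluted compound and fluorogenic substrate Boc-VPR-AMC in 20 mM Hepes pH 7.4, 140 mM NaCl, 0.1% Tween 20 at room temperature. The reaction was stopped after 20 min with 0.1 M acetic acid and fluorescence read. % activity was normalized to DMSO and no-enzyme controls, and IC50 was taken as equivalent to Ki.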

[3] = test system: Lectin Pathway Activation (LPA) in human serum; assay: Lectin pathway activation (LPA) assay in human serum, C4 deposition on mannan-coated plate; assay type: biochemical; settings: 1% pooled human serum, 55 minutes, room temperature
Description: A Microtiter ELISA plate (Nunc-Maxi Sorp; Sigma-Aldrich®, USA) was coated with mannan sourced from Saccharomyces cerevisiae (Sigma-Aldrich®, USA) in a coating buffer comprising 33.3 mM Na2CO3 and 166.67 mM NaHCO3. The plates were incubated at room temperature overnight. Subsequently, the plates were blocked with a 5% bovine serum albumin solution (Sigma-Aldrich®, USA) prepared in PBST for 2 hours at room temperature with agitation. Varying concentrations of MASP-2 inhibitors were dispensed onto the empty plate.
To perform the assay, pooled human serum was diluted to 1% in a solution of 20 mM HEPES (pH=7.4), 140 mM NaCl, and 1 mM MgCl2. Then, 40 μl of the diluted human serum was dispensed into each well of the Microtiter ELISA plate and incubated for 55 minutes at room temperature. The C4 deposition on the mannan-coated surface was stopped using an EDTA stop solution (20 mM HEPES, pH=7.4, 140 mM NaCl, and 150 mM EDTA). Subsequently, rabbit anti-Human C4c antibody (Agilent Technologies, USA) prepared in PBST was added, and the plates were incubated at room temperature for 30 minutes with agitation, then washed with PBST, and Goat anti-rabbit IgG(H+L) HRP-conjugated (Southern Biotech®, USA) was added. The plates were again incubated at room temperature for 30 minutes with agitation, and then were washed with PBST. Following this, the Amplex® UltraRed® (Thermo Fischer Sci, USA) substrate solution was added for 16 minutes, followed by the addition of the Amplex® UltraRed® stop solution. The plates' fluorescence was measured using an i3× microplate reader (Molecular Devices, USA) with excitation at 550 nm and emission at 580 nm. The raw data generated from the plate reader was exported to GraphPad Prism® (version 10.0.3), and the non-linear regression curve was generated using the 4-parameter logistic fit equation. All data are reported as pIC50 with a 95% confidence interval.

[4] = test system: HSCT-TMA; settings: once-weekly treatment, HSCT-TMA patients; cited from earlier work
[5] = test system: microvascular endothelial cell injury; settings: tissue culture model; cited from earlier work
[6] = test system: severe IgA nephropathy; settings: cited from earlier work

Ki [1] [nM] | Ki [2] [nM] | IC50 [3] [nM] | Compound | response rate based on improvement in laboratory TMA markers and clinical benefit [4] [%] | effect on HSCT-TMA plasma-mediated endothelial damage [5] | tolerability ([6]; human, in vivo) | urine protein excretion decrease from baseline ([6]; once-weekly treatment, after 3 years of follow-up) [%] | annualized rate of kidney function decline ([6]; once-weekly treatment, after 3 years of follow-up, matched external comparator group 8.6) [mL/min/yr]
< 500 | > 25000 | < 500 | Cc1cc(Cl)cc(CNc2cnc3n(c2=O)[C@H](C(=O)NCc2cnc4c(c2)CNC4)CC3)c1 [Compound 65, (S)-3-((3-chloro-5-methylbenzyl)amino)-N-((6,7-dihydro-5H-pyrrolo[3,4-b]pyridin-3-yl)methyl)-4-oxo-4,6,7,8-tetrahydropyrrolo[1,2-a]pyrimidine-6-carboxamide, di-trifluoroacetate] |  |  |  |  | 
< 500 | 500 to 2500 | < 500 | Cc1ccc(CNc2cnc3n(c2=O)[C@H](C(=O)NCc2ccc(N)nc2C)CC3)cc1C [Compound 72, (S)-N-((6-amino-2-methylpyridin-3-yl)methyl)-3-((3,4-dimethylbenzyl)amino)-4-oxo-4,6,7,8-tetrahydropyrrolo[1,2-a]pyrimidine-6-carboxamide] |  |  |  |  | 
< 500 | > 25000 | < 500 | Cc1cc(C)cc(CNc2cnc3n(c2=O)[C@H](C(=O)N[C@H](C)c2cc4c(s2)CNC4)CC3)c1 [Compound 106] |  |  |  |  | 
< 500 | 500 to 2500 | < 500 | Cc1ccc(C)c(CNc2cnc3n(c2=O)[C@H](C(=O)N[C@@H]2CCc4nc(N)ccc42)CC3)c1 [Compound 94] |  |  |  |  | 
< 500 | > 25000 | < 500 | Cc1cc(C)cc(CNc2cnc3n(c2=O)[C@H](C(=O)NCc2cnc4c(c2)CNC4)CC3)c1 [Compound 22, (S)—N-((6,7-dihydro-5H-pyrrolo[3,4-b]pyridin-3-yl)methyl)-3-((3,5-dimethylbenzyl)amino)-4-oxo-4,6,7,8-tetrahydropyrrolo[1,2-a]pyrimidine-6-carboxamide, trifluoroacetate] |  |  |  |  | 
< 500 | 500 to 2500 | < 500 | Cc1nc(N)ccc1CNC(=O)[C@@H]1CCc2ncc(NCc3cccc(F)c3)c(=O)n21 [Compound 53, (S)—N-((6-amino-2-methylpyridin-3-yl)methyl)-3-((3-fluorobenzyl)amino)-4-oxo-4,6,7,8-tetrahydropyrrolo[1,2-a]pyrimidine-6-carboxamide] |  |  |  |  | 
< 500 | 500 to 2500 | < 500 | Cc1cccc(CNc2cnc3n(c2=O)[C@H](C(=O)N[C@@H]2CCc4nc(N)ccc42)CC3)c1 [Compound 82, (S)—N—((R)-2-amino-6,7-dihydro-5H-cyclopenta[b]pyridin-5-yl)-3-((3-methylbenzyl)amino)-4-oxo-4,6,7,8-tetrahydropyrrolo[1,2-a]pyrimidine-6-carboxamide] |  |  |  |  | 
< 500 | 2500 to 10000 | < 500 | Cc1cc(F)ccc1CNc1cnc2n(c1=O)[C@H](C(=O)NCc1ccc(N)nc1C)CC2 [Compound 62] |  |  |  |  | 
< 500 | 2500 to 10000 | < 500 | Cc1cc(C)cc(CNc2cnc3n(c2=O)[C@H](C(=O)NCc2cnc4[nH]cc(Cl)c4c2)CC3)c1 [Compound 18, (S)—N-((3-chloro-1H-pyrrolo[2,3-b]pyridin-5-yl)methyl)-3-((3,5-dimethylbenzyl)amino)-4-oxo-4,6,7,8-tetrahydropyrrolo[1,2-a]pyrimidine-6-carboxamide, trifluoracetate] |  |  |  |  | 
< 500 | 2500 to 10000 | < 500 | Cc1ccc(F)c(CNc2cnc3n(c2=O)[C@H](C(=O)NCc2cc4c(s2)CNC4)CC3)c1 [Compound 50, (S)—N-((5,6-dihydro-4H-thieno[2,3-C]pyrrol-2-yl)methyl)-3-((2-fluoro-5-methylbenzyl)amino)-4-oxo-4,6,7,8-tetrahydropyrrolo[1,2-a]pyrimidine-6-carboxamide, di-trifluoroacetate] |  |  |  |  | 

More lines, now with the values behind:

Compound | Ki [1] [nM] | Ki [2] [nM] | IC50 [3] [nM] | response rate based on improvement in laboratory TMA markers and clinical benefit [4] [%] | effect on HSCT-TMA plasma-mediated endothelial damage [5] | tolerability ([6]; human, in vivo) | urine protein excretion decrease from baseline ([6]; once-weekly treatment, after 3 years of follow-up) [%] | annualized rate of kidney function decline ([6]; once-weekly treatment, after 3 years of follow-up, matched external comparator group 8.6) [mL/min/yr]
Cc1cc(F)cc(CNc2cnc3n(c2=O)[C@H](C(=O)N[C@H](C)c2ccc(N)nc2)CC3)c1 [Compound 25, (S)—N—((R)-1-(6-aminopyridin-3-yl)ethyl)-3-((3-fluoro-5-methylbenzyl)amino)-4-oxo-4,6,7,8-tetrahydropyrrolo[1,2-a]pyrimidine-6-carboxamide, DI-trifluoroacetate] | < 500 | > 25000 | < 500 |  |  |  |  | 
Cc1cc(C)cc(CNc2cnc3n(c2=O)[C@H](C(=O)N[C@@H]2CCc4nc(N)ccc42)CC3)c1 [Compound 81, (S)—N—((R)-2-amino-6,7-dihydro-5H-cyclopenta[b]pyridin-5-yl)-3-((3,5-dimethylbenzyl)amino)-4-oxo-4,6,7,8-tetrahydropyrrolo[1,2-a]pyrimidine-6-carboxamide] | < 500 | 500 to 2500 | < 500 |  |  |  |  | 
N#CC1C2CC1C2CNc1cnc2n(c1=O)[C@H](C(=O)N[C@@H]1CCc3nc(N)ccc31)CC2 (stereo partly drawn) [Compound 86, (6S)—N—((R)-2-amino-6,7-dihydro-5H-cyclopenta[b]pyridin-5-yl)-3-(((4-cyanobicyclo[1.1.1]pentan-2-yl)methyl)amino)-4-oxo-4,6,7,8-tetrahydropyrrolo[1,2-a]pyrimidine-6-carboxamide] | < 500 | > 25000 | < 500 |  |  |  |  | 
Nc1ccc2c(n1)CC[C@H]2NC(=O)[C@@H]1CCc2ncc(NCc3cccc(C(F)(F)F)c3)c(=O)n21 [Compound 105] | < 500 | 2500 to 10000 | < 500 |  |  |  |  | 
Nc1ccc2c(n1)CC[C@H]2NC(=O)[C@@H]1CCc2ncc(NCc3ccc4c(c3)COC4)c(=O)n21 [Compound 100] | < 500 | 2500 to 10000 | < 500 |  |  |  |  | 
N#Cc1cc(CNc2cnc3n(c2=O)[C@H](C(=O)N[C@@H]2CCc4nc(N)ccc42)CC3)cc(C(F)(F)F)c1 [Compound 90, (S)-N-((R)-2-amino-6,7-dihydro-5H-cyclopenta[b]pyridin-5-yl)-3-((3-cyano-5-(trifluoromethyl)benzyl)amino)-4-oxo-4,6,7,8-tetrahydropyrrolo[1,2-a]pyrimidine-6-carboxamide] | < 500 | 500 to 2500 | < 500 |  |  |  |  | 
narsoplimab |  |  |  | 61 | reduce HSCT-TMA plasma-mediated endothelial damage | well tolerated | 38 | 5.2
Cc1nc(N)ccc1CNC(=O)[C@@H]1CCc2ncc(NCc3ccc(-n4cccn4)cc3)c(=O)n21 [Compound 44, (S)-3-((4-(1H-pyrazol-1-yl)benzyl)amino)-N-((6-amino-2-methylpyridin-3-yl)methyl)-4-oxo-4,6,7,8-tetrahydropyrrolo[1,2-a]pyrimidine-6-carboxamide, trifluoroacetate] | < 500 | 10000 to 25000 | < 500 |  |  |  |  | 
CS(=O)(=O)c1cccc(CNc2cnc3n(c2=O)[C@H](C(=O)N[C@@H]2CCc4nc(N)ccc42)CC3)c1 [Compound 97] | < 500 | 500 to 2500 | < 500 |  |  |  |  | 
Cc1cc(C)cc(CNc2cnc3n(c2=O)[C@H](C(=O)N[C@H](C)c2ccc(N)nc2C)CC3)c1 [Compound 64, (S)-N-((R)-1-(6-amino-2-methylpyridin-3-yl)ethyl)-3-((3,5-dimethylbenzyl)amino)-4-oxo-4,6,7,8-tetrahydropyrrolo[1,2-a]pyrimidine-6-carboxamide] | < 500 | 10000 to 25000 | < 500 |  |  |  |  | 
COc1cc(Cl)cc(CNc2cnc3n(c2=O)[C@H](C(=O)N[C@H](C)c2ccc(N)nc2)CC3)c1 [Compound 76, (S)-N-((R)-1-(6-aminopyridin-3-yl)ethyl)-3-((3-chloro-5-methoxybenzyl)amino)-4-oxo-4,6,7,8-tetrahydropyrrolo[1,2-a]pyrimidine-6-carboxamide] | < 500 | 10000 to 25000 | < 500 |  |  |  |  | 
